Columns and labels:
PIK3CA = experiment: KINOMEscan; conditions: 50000 nM
Procedure: KINOMEscan™ selectivity screen
(§4) The assay was perfor med at DiscoveRx Corporation according the methods published previously5. Briefly, Kinase-tagged T7 phage strains were grown in parallel in an E. coli host derived from the BL21 strain. E. coli were grown to log-phase and infected with T7 phage from a frozen stock and incubated with shaking at 32°C until lysis (90-150 minutes). The kinases were produced in HEK-293 cells and subsequently tagged with DNA for qPCR detection. Streptavidin-coated magnetic beads were treated with biotinylated small molecule ligands to generate affinity resins for kinase
(§5) inhibitor or DMSO control was performed in polypropylene 384-well plates for 1 hr at room temperature. After wash with PBS buffer containing 0.05% Tween 20, the beads were incubated in elution buffer (PBS containing 0.05 % Tween 20 and 0.5 μM non-biotinylated affinity ligand) for 30 minutes at room temperature. The kinase concentration in the eluates was measured by qPCR.

[1] = test system: ABL1(M351T)-phosphorylated; experiment: KINOMEscan; conditions: 50000 nM
Procedure: KINOMEscan™ selectivity screen
The assay was perfor med at DiscoveRx Corporation according the methods published previously5. […] The kinases were produced in HEK-293 cells and subsequently tagged with DNA for qPCR detection. Streptavidin-coated magnetic beads were treated with biotinylated small molecule ligands to generate affinity resins for kinase
as §5

[2] = test system: RSK1(Kin.Dom.2-C-terminal); experiment: KINOMEscan; conditions: 50000 nM
Procedure: KINOMEscan™ selectivity screen
as §4, §5

ULK2 = experiment: KINOMEscan; conditions: 50000 nM
Procedure: KINOMEscan™ selectivity screen
as §4, §5

PDK1 = test system: T1, PDK1; experiment: ADP-Glo kinase assay; format: biochemical; conditions: 50 µM
T1 construct: purchased Promega V2761
Procedure: (§1) Elisa Assay for phosphorylation of Akt
(§2) Neuro 2A cells in 48-well plates were incubated with the inhibitor for 30 minutes at 37°C followed by IGF stimulation for 30 min. Cells were lysed and subjected to Elisa assay using an Akt (S473) InstantOne Elisa kit (ThermoFisher Scientific, # 8586042-11) in accordance with manufacturer ’s instruction.
(§3) An ADP-GloTM kinase assay kit (Promega, # V9101) was used to measure the activity of PDK1 or SGK1 in accordance with the manufacturer’s instructions. For PDK1 assay, the reaction mixture included 5 µM ATP, 50 µM inhibitor, 100 ng recombinant PDK1 and 2 µg PDKtide substrate (Promega, #V2761) prior to the addition of the ADP-Glo reagents. For SGK1, 5 µM ATP, 50 µM inhibitor, 10 ng SGK1 and 1 µg Akt substrate peptide (Promega, #V2911) were used. Staurosporine at concentration between 0.4 and 4,000 nM or the SGK1 inhibitor GSK-650394 (Tocris Bioscience) between 7 and 2,000 nM were used as controls for PDK1 or SGK1 assay respectively. For PI3K assay, 50 µM ATP, 50 µM inhibitor, 100 ng recombinant PI3 kinase (SignalChem, Richmond, Canada, # P27-10H-05) and 1.5 mg/mL multilamellar phospholipid vesicles containing PC/PE/PS/PIP2 (at mass ratio of 1/0.5/0.2/0.1) were used. Inhibitor blanks as well as LY-294002 between 78 and […]

SGK1 = test system: T2, SGK1; experiment: ADP-Glo kinase assay; format: biochemical; conditions: 50 µM
T2 construct: purchased Promega V2911
Procedure: as §1, §2, §3

LTK = experiment: KINOMEscan; conditions: 50000 nM
Procedure: KINOMEscan™ selectivity screen
as §4, §5

NEK2 = experiment: KINOMEscan; conditions: 50000 nM
Procedure: KINOMEscan™ selectivity screen
as §4, §5

PKMYT1 = experiment: KINOMEscan; conditions: 50000 nM
Procedure: KINOMEscan™ selectivity screen
(§6) Briefly, Kinase-tagged T7 phage strains were grown in parallel in an E. coli host derived from the BL21 strain. E. coli were grown to log-phase and infected with T7 phage from a frozen stock and incubated with shaking at 32°C until lysis (90-150 minutes). The kinases were produced in HEK-293 cells and subsequently tagged with DNA for qPCR detection. Streptavidin-coated magnetic beads were treated with biotinylated small molecule ligands to generate affinity resins for kinase
as §5

PIK3CG = experiment: KINOMEscan; conditions: 50000 nM
Procedure: KINOMEscan™ selectivity screen
as §6, §5

EPHA5 = experiment: KINOMEscan; conditions: 50000 nM
Procedure: KINOMEscan™ selectivity screen
as §4, §5

MYLK4 = experiment: KINOMEscan; conditions: 50000 nM
Procedure: KINOMEscan™ selectivity screen
as §4, §5

FLT3(K663Q) = experiment: KINOMEscan; conditions: 50000 nM
Procedure: KINOMEscan™ selectivity screen
as §6, §5

ULK3 = experiment: KINOMEscan; conditions: 50000 nM
Procedure: KINOMEscan™ selectivity screen
as §4, §5

[3] = test system: TYK2(JH2domain-pseudokinase); experiment: KINOMEscan; conditions: 50000 nM
Procedure: KINOMEscan™ selectivity screen
as §4, §5

CHEK1 = experiment: KINOMEscan; conditions: 50000 nM
Procedure: KINOMEscan™ selectivity screen
as §4, §5

ERK1 = experiment: KINOMEscan; conditions: 50000 nM
Procedure: KINOMEscan™ selectivity screen
as §4, §5

GRK1 = experiment: KINOMEscan; conditions: 50000 nM
Procedure: KINOMEscan™ selectivity screen
as §4, §5

EPHB2 = experiment: KINOMEscan; conditions: 50000 nM
Procedure: KINOMEscan™ selectivity screen
as §4, §5

[4] = test system: RSK1(Kin.Dom.1-N-terminal); experiment: KINOMEscan; conditions: 50000 nM
Procedure: KINOMEscan™ selectivity screen
as §6, §5

AURKB = experiment: KINOMEscan; conditions: 50000 nM
Procedure: KINOMEscan™ selectivity screen
as §4, §5

ADCK4 = experiment: KINOMEscan; conditions: 50000 nM
Procedure: KINOMEscan™ selectivity screen
as §4, §5

FGFR1 = experiment: KINOMEscan; conditions: 50000 nM
Procedure: KINOMEscan™ selectivity screen
as §4, §5

MEK6 = experiment: KINOMEscan; conditions: 50000 nM
Procedure: KINOMEscan™ selectivity screen
as §4, §5

DDR2 = experiment: KINOMEscan; conditions: 50000 nM
Procedure: KINOMEscan™ selectivity screen
as §4, §5

FYN = experiment: KINOMEscan; conditions: 50000 nM
Procedure: KINOMEscan™ selectivity screen
as §4, §5

NLK = experiment: KINOMEscan; conditions: 50000 nM
Procedure: KINOMEscan™ selectivity screen
as §4, §5

RIOK3 = experiment: KINOMEscan; conditions: 50000 nM
Procedure: KINOMEscan™ selectivity screen
as §4, §5

PIK3C2G = experiment: KINOMEscan; conditions: 50000 nM
Procedure: KINOMEscan™ selectivity screen
as §4, §5

MET = experiment: KINOMEscan; conditions: 50000 nM
Procedure: KINOMEscan™ selectivity screen
as §4, §5

MAP3K4 = experiment: KINOMEscan; conditions: 50000 nM
Procedure: KINOMEscan™ selectivity screen
as §4, §5

CDK9 = experiment: KINOMEscan; conditions: 50000 nM
Procedure: KINOMEscan™ selectivity screen
as §6, §5

FGR = experiment: KINOMEscan; conditions: 50000 nM
Procedure: KINOMEscan™ selectivity screen
as §4, §5

ROCK2 = experiment: KINOMEscan; conditions: 50000 nM
Procedure: KINOMEscan™ selectivity screen
as §4, §5

PRKX = experiment: KINOMEscan; conditions: 50000 nM
Procedure: KINOMEscan™ selectivity screen
as §4, §5

[5] = test system: ABL1(T315I)-nonphosphorylated; experiment: KINOMEscan; conditions: 50000 nM
Procedure: KINOMEscan™ selectivity screen
as §6, §5

PDGFRB = experiment: KINOMEscan; conditions: 50000 nM
Procedure: KINOMEscan™ selectivity screen
as §6, §5

PFTK1 = experiment: KINOMEscan; conditions: 50000 nM
Procedure: KINOMEscan™ selectivity screen
as §6, §5

SgK110 = experiment: KINOMEscan; conditions: 50000 nM
Procedure: KINOMEscan™ selectivity screen
as §4, §5

MRCKA = experiment: KINOMEscan; conditions: 50000 nM
Procedure: KINOMEscan™ selectivity screen
as §4, §5

NEK9 = experiment: KINOMEscan; conditions: 50000 nM
Procedure: KINOMEscan™ selectivity screen
as §4, §5

TYRO3 = experiment: KINOMEscan; conditions: 50000 nM
Procedure: KINOMEscan™ selectivity screen
as §4, §5

EPHA7 = experiment: KINOMEscan; conditions: 50000 nM
Procedure: KINOMEscan™ selectivity screen
as §4, §5

In the case of Oc1cc(-c2ccccc2)c2ccccc2n1 [G7, 4-phenylquinolin-2(1H)-one], the “Percent Control” value (PIK3CA) is reported as 82%, the “Percent Control” value [1] is reported as 55% and the “Percent Control” value [2] is reported as 39%. The “Percent Control” value (ULK2) was 76%, the “effect on PDK1 activity” value (PDK1) was “no effects” and the “effect on SGK1 activity” value (SGK1) was “no effects”. The “Percent Control” value (LTK) was 95%, the “Percent Control” value (NEK2) was 77% and the “Percent Control” value (PKMYT1) was 65%. The “Percent Control” value (PIK3CG) was 94%, the “Percent Control” value (EPHA5) was 95% and the “Percent Control” value (MYLK4) was 43%. For the same compound, the “Percent Control” value (FLT3(K663Q)) was 29%, the “Percent Control” value (ULK3) was 86% and the “Percent Control” value [3] was 15%. For the same compound, the “Percent Control” value (CHEK1) was 85%, the “Percent Control” value (ERK1) was 89% and the “Percent Control” value (GRK1) was 75%. The “Percent Control” value (EPHB2) was 93%, the “Percent Control” value [4] was 23% and the “Percent Control” value (AURKB) was 91%. The “Percent Control” value (ADCK4) was 96%, the “Percent Control” value (FGFR1) was 56% and the “Percent Control” value (MEK6) was 72%. The “Percent Control” value (DDR2) was 87%, the “Percent Control” value (FYN) was 89% and the “Percent Control” value (NLK) was 82%. The “Percent Control” value (RIOK3) was 58%, the “Percent Control” value (PIK3C2G) was 97% and the “Percent Control” value (MET) was 73%. For the same compound, the “Percent Control” value (MAP3K4) was 100%, the “Percent Control” value (CDK9) was 99% and the “Percent Control” value (FGR) was 88%. The “Percent Control” value (ROCK2) was 81%, the “Percent Control” value (PRKX) was 76% and the “Percent Control” value [5] was 86%. The “Percent Control” value (PDGFRB) was 23%, the “Percent Control” value (PFTK1) was 94% and the “Percent Control” value (SgK110) was 100%. The “Percent Control” value (MRCKA) was 100%, the “Percent Control” value (NEK9) was 80% and the “Percent Control” value (TYRO3) was 93%. The “Percent Control” value (EPHA7) was 89%.

Source: paper PMC5601486, “Identification of 4-phenylquinolin-2(1H)-one as a specific allosteric inhibitor of Akt” (Scientific Reports, 2017)
